These results are taken from PMC12439166, “Dietary flavonoids form supramolecular assemblies, alter biochemistry, and enhance cell resilience” (Frontiers in Nutrition, 2025).

Assay [1] addresses T1, Histone-Lysine N-methyltransferase (NSD2) (Homo sapiens, UniProt O96028).
T1 sequence (O96028 1-1365): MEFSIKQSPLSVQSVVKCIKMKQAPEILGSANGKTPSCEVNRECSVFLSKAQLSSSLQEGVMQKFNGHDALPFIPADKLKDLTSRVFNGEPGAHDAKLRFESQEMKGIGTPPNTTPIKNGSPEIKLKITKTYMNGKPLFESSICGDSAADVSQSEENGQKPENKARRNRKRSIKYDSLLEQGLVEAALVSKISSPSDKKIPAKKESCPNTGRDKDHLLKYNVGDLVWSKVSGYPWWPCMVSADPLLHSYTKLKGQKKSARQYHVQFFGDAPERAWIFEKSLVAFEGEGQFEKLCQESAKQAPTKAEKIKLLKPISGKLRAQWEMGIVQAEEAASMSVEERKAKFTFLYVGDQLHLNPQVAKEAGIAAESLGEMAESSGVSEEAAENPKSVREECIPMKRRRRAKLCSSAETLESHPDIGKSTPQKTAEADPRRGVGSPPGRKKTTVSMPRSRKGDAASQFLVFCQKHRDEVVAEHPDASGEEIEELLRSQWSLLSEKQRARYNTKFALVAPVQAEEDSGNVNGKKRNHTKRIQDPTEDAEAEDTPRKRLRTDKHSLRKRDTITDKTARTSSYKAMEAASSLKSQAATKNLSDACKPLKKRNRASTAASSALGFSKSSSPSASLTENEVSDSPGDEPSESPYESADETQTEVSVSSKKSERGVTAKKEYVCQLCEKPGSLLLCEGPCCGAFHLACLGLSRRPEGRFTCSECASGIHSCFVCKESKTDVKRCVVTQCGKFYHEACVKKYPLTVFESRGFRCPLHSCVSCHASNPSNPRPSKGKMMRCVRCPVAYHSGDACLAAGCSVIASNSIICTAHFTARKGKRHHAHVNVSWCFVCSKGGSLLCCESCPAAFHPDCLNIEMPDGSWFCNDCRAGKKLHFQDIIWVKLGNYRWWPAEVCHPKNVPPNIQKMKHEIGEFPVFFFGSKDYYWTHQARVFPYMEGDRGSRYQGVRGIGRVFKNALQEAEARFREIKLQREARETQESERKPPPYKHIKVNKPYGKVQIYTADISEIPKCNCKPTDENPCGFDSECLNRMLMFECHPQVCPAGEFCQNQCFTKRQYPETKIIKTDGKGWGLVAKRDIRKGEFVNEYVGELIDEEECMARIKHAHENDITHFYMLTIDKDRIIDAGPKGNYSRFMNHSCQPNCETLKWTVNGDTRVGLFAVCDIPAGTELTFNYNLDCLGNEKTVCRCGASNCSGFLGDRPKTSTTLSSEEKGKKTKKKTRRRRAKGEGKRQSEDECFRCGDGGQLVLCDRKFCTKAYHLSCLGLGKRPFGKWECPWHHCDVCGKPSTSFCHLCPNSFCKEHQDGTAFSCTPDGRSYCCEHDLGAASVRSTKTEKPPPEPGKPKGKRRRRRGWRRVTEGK
The assay is described as follows: Enzyme activity assay (SAMDI-MS), NSD2. Type of assay: biochemical. Conditions: 10 concentrations, 5 nM to 100 μM, compounds incubated with enzyme 30 min, result in words. The procedure: (§1) Enzyme screens were performed by SAMDI Tech (contract research organization); enzyme assays were performed in a 20 μL volume in 384-well low-volume polypropylene microtiter plates (Greiner Bio-One) at room temperature. The enzymes [Arginase 1 (ARG1), Lysine demethylase 4C (KDM4C), MAP/microtubule affinity-regulating kinase 4 (MARK4), Histone-Lysine N-methyltransferase (NSD2), Tyrosine-protein phosphatase non-receptor type 1 (PTP1B), and Sirtuin-3 (SIRT3)] were incubated with compounds for 30 min prior to initiation of the reaction by the addition of substrate and cofactors (if required). Reactions were quenched by the addition of 0.5% formic acid (final) with subsequent neutralization using 1% sodium bicarbonate (final). For SAMDI MS analysis, 2 μL of each reaction was transferred using a 384-channel automated liquid handler to SAMDI biochip arrays functionalized with a neutravidin-presenting self-assembled monolayer. The preparation of SAMDI biochip arrays has been previously described ([41], [42], [49]). The SAMDI arrays were incubated for 1 h in a humidified chamber to allow specific immobilization of the biotinylated substrates and products; they were then purified by washing with ultrafiltered water (50 μL/spot) and dried with compressed air. A matrix comprising α-Cyano-4-hydroxycinnamic acid in 80% acetonitrile: 20% aqueous ammonium citrate (10 mg/mL final) was applied in an automated format by dispensing 50 nL to each spot in the array. SAMDI MS was performed using reflector positive mode on an AB Sciex TOF-TOF 5800 System (AB Sciex, Framingham, MA) with 400 shots/spot analyzed in a random raster sampling. For data analysis, the area under the curves (AUCs) for the product peak and substrate peak were calculated using the TOF/TOF Series Explorer (AB Sciex), and the amount of product formed was calculated using the equation AUC product / (AUC product + AUC Substrate). Negative controls were pre-quenched with 0.5% formic acid (final). Lysozyme assay was performed using the manufacturer’s instructions (Biovision Lysozyme inhibitor screening kit K237). Flavonoids were acquired from Sigma-Aldrich and Seleckchem.
(§2) IC50 values of enzyme inhibition. Inhibition of the enzymes was measured at 10 concentration values in the range of 5 nM to 100 μM for each compound and enzyme, with two technical replicates; the percent inhibition values were determined by SAMDI software. Sigmoidal curves were fitted to the percent inhibition vs log10 (concentration) series, and IC50 values were determined at the crossing point of 50 % inhibition. Manual verification of the fits and the IC50 values was performed. The resulting IC50 values fell into the following categories: (a) within the assayed range of 5nM to 100μM (26 % of fits), (b) IC50 could be extrapolated, IC50 > 100μM (12 % of fits), or (c) fitting was not possible because all values were at baseline (62 % of fits). Compound efficacy ranking. First, for each IC50 value per compound and enzyme, a Z-score was calculated based on the log10 (IC50) value and that of the compounds that produced a successful readout for enzyme i , according to Equation 1: […]

The target in another assay is T2, Lysozyme (Gallus gallus, UniProt P00698).
T2 construct: purchased Biovision K237
T2 sequence (P00698 19-147): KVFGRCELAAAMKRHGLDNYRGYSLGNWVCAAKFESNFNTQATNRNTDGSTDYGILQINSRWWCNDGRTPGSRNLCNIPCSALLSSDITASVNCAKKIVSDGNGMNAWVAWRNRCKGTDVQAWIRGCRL
The assay is described as follows: Lysozyme assay (Biovision Lysozyme inhibitor screening kit K237). Type of assay: biochemical. Conditions: 10 concentrations, 5 nM to 100 μM, result in words. How it is done:
as §1, §2

Regarding `O=c1c(O[C@@H]2O[C@H](CO)[C@@H](O)[C@H](O)[C@H]2O)c(-c2ccc(O)c(O)c2)oc2cc(O)cc(O)c12` [isoquercitrin], the “inhibition of enzyme activity, NSD2” value in assay [1] is recorded as “blocked”. On Lysozyme, the “inhibition of enzyme activity, Lysozyme” value is reported as “blocked”.

As for `O=c1c(O)c(-c2ccc(O)c(O)c2)oc2cc(O)cc(O)c12` [quercetin], the “inhibition of enzyme activity, NSD2” value is “blocked” in assay [1], “inhibited” in assay [1] (listed as Quercetin) and “concentration-dependent inhibition” in assay [1] (listed as Quercitin). The results for the “inhibition of enzyme activity, Lysozyme” value against Lysozyme, at Lysozyme (listed as Quercetin) and at Lysozyme (listed as Quercitin) were “blocked”, “inhibited” and “concentration-dependent inhibition”, respectively.

Take `C[C@@H]1O[C@@H](Oc2c(-c3ccc(O)c(O)c3)oc3cc(O)cc(O)c3c2=O)[C@H](O)[C@H](O)[C@H]1O` [quercitrin]: the “inhibition of enzyme activity, NSD2” value in assay [1] is on record as “blocked”. Also, on Lysozyme, the “inhibition of enzyme activity, Lysozyme” value is recorded as “blocked”.
